# Experimental data: patent publication US20240254118A1, “PRMT5 INHIBITORS AND USES THEREOF” (Gilead Sciences, Inc., priority 2022, published 2024)
# System: HCT116 MTAP-deleted cells
# Test: Cell viability assay (CellTiter-Glo, 7 days), HCT116 MTAP-deleted
# Settings: Homo sapiens, HCT-116, 168 h
row,SMILES,CC50
1,"CN(C(=O)C1CC1)N(Cc1ccc(OC(F)F)cn1)C(=O)c1cc2c(cc1F)nc(N)c1cnn(C)c12 [Example 290, 4-amino-N′-(cyclopropanecarbonyl)-N-((5-(difluoromethoxy)pyridin-2-yl)methyl)-7-fluoro-N′,1-dimethyl-1H-pyrazolo[4,3-c]quinoline-8-carbohydrazide]",< 100 nM
2,"CN(C(=O)C1CC1)N(Cc1ccc(OC(F)F)cn1)C(=O)c1ccc2nc(N)c3cnn(C)c3c2c1 [Example 291, 4-amino-N′-(cyclopropanecarbonyl)-N-((5-(difluoromethoxy)pyridin-2-yl)methyl)-N′,1-dimethyl-1H-pyrazolo[4,3-c]quinoline-8-carbohydrazide]",< 100 nM
3,"CC(=O)N(C)N(Cc1nc2ccc(Cl)cc2n1C)C(=O)c1ccc2nc(N)c3cnn(C)c3c2c1 [Example 426, N′-acetyl-4-amino-N-((6-chloro-1-methyl-1H-benzo[d]imidazol-2-yl)methyl)-N′,1-dimethyl-1H-pyrazolo[4,3-c]quinoline-8-carbohydrazide]",< 100 nM
4,"COc1c(CN(C(=O)c2ccc3nc(N)c4cnn(C)c4c3c2)N(C)C(=O)C2CC2)ccc(Cl)c1F [Example 313, 4-amino-N-(4-chloro-3-fluoro-2-methoxybenzyl)-N′-(cyclopropanecarbonyl)-N′,1-dimethyl-1H-pyrazolo[4,3-c]quinoline-8-carbohydrazide]",< 100 nM
5,"CC(=O)N(C)N(Cc1nc(-c2ccccc2)cs1)C(=O)c1ccc2nc(N)c3cnn(C)c3c2c1 [Example 429, N′-acetyl-4-amino-N′,1-dimethyl-N-((4-phenylthiazol-2-yl)methyl)-1H-pyrazolo[4,3-c]quinoline-8-carbohydrazide]",< 100 nM
6,"CC(=O)N(C)N(Cc1ccc(C#N)cc1OC(F)F)C(=O)c1ccc2nc(N)c3cnn(C)c3c2c1 [Example 408, N′-acetyl-4-amino-N-(4-cyano-2-(difluoromethoxy)benzyl)-N′,1-dimethyl-1H-pyrazolo[4,3-c]quinoline-8-carbohydrazide]",< 100 nM
7,"[2H]C([2H])([2H])N(C(=O)C1CC1)N(Cc1ncc(C(F)(F)F)cc1F)C(=O)c1ccc2nc(N)c3cnn(C)c3c2c1 [Example 268, 4-amino-N′-(cyclopropanecarbonyl)-N-((3-fluoro-5-(trifluoromethyl)pyridin-2-yl)methyl)-1-methyl-N′-(methyl-d3)-1H-pyrazolo[4,3-c]quinoline-8-carbohydrazide]",< 100 nM
8,"Cn1ncc2c(N)nc3ccc(C(=O)N(Cc4ccc(C(F)(F)F)cn4)N4CCOC5(CC5)C4)cc3c21 [Example 285, 4-amino-1-methyl-N-(4-oxa-7-azaspiro[2.5]octan-7-yl)-N-((5-(trifluoromethyl)pyridin-2-yl)methyl)-1H-pyrazolo[4,3-c]quinoline-8-carboxamide]",100 to 1000 nM
9,"CC(=O)N(C)N(Cc1ccc(C(F)(F)F)cc1C)C(=O)c1ccc2nc(N)c3cnn(C)c3c2c1 [Example 410, N′-acetyl-4-amino-N′,1-dimethyl-N-(2-methyl-4-(trifluoromethyl)benzyl)-1H-pyrazolo[4,3-c]quinoline-8-carbohydrazide]",< 100 nM
10,"CN(C(=O)C1CC1)N(Cc1cc(F)c(-c2cnn(C(F)F)c2)cc1F)C(=O)c1ccc2nc(N)c3cnn(C)c3c2c1 [Example 314, 4-amino-N′-(cyclopropanecarbonyl)-N-(4-(1-(difluoromethyl)-1H-pyrazol-4-yl)-2,5-difluorobenzyl)-N′,1-dimethyl-1H-pyrazolo[4,3-c]quinoline-8-carbohydrazide]",< 100 nM
11,"CC(=O)N(C)N(Cc1cnn(-c2ccc(C(F)(F)F)cc2)c1)C(=O)c1ccc2nc(N)c3cnn(C)c3c2c1 [Example 430, N′-acetyl-4-amino-N′,1-dimethyl-N-((1-(4-(trifluoromethyl)phenyl)-1H-pyrazol-4-yl)methyl)-1H-pyrazolo[4,3-c]quinoline-8-carbohydrazide]",100 to 1000 nM
12,"CC(=O)N(C)N(Cc1ccc(-c2cccnc2)cc1F)C(=O)c1ccc2nc(N)c3cnn(C)c3c2c1 [Example 241, N′-acetyl-4-amino-N-(2-fluoro-4-(pyridin-3-yl)benzyl)-N′,1-dimethyl-1H-pyrazolo[4,3-c]quinoline-8-carbohydrazide]",< 100 nM
13,"Cn1ncc2c(N)nc3cc(F)c(C(=O)N(Cc4ccc(C(F)(F)F)cn4)N4CCOC(C(F)(F)F)C4)cc3c21 (centres unmarked) [Example 427, 4-amino-7-fluoro-1-methyl-N-(2-(trifluoromethyl)morpholino)-N-((5-(trifluoromethyl)pyridin-2-yl)methyl)-1H-pyrazolo[4,3-c]quinoline-8-carboxamide]",< 100 nM
14,"CC(=O)N(C)N(Cc1c(F)cc(-c2cnn(C(F)F)c2)cc1F)C(=O)c1ccc2nc(N)c3cnn(C)c3c2c1 [Example 379, N′-acetyl-4-amino-N-[[4-[1-(difluoromethyl)pyrazol-4-yl]-2,6-difluoro-phenyl]methyl]-N′,1-dimethyl-pyrazolo[4,3-c]quinoline-8-carbohydrazide]",< 100 nM
15,"Cn1ncc2c(N)nc3ccc(C(=O)N(Cc4ccc(C(F)(F)F)cn4)N4CC5(CC5)COC4=O)cc3c21 [Example 319, 4-amino-1-methyl-N-(6-oxo-5-oxa-7-azaspiro[2.5]octan-7-yl)-N-((5-(trifluoromethyl)pyridin-2-yl)methyl)-1H-pyrazolo[4,3-c]quinoline-8-carboxamide]",< 100 nM
16,"CC(=O)N(C)N(Cc1ccn(-c2ccc(F)cc2F)n1)C(=O)c1ccc2nc(N)c3cnn(C)c3c2c1 [Example 440, N′-acetyl-4-amino-N-((1-(2,4-difluorophenyl)-1H-pyrazol-3-yl)methyl)-N′,1-dimethyl-1H-pyrazolo[4,3-c]quinoline-8-carbohydrazide]",< 100 nM
17,"CN(C(=O)C1CC1)N(Cc1ccc(-c2ccsn2)cc1F)C(=O)c1ccc2nc(N)c3cnn(C)c3c2c1 [Example 239, 4-amino-N′-(cyclopropanecarbonyl)-N-(2-fluoro-4-(isothiazol-3-yl)benzyl)-N′,1-dimethyl-1H-pyrazolo[4,3-c]quinoline-8-carbohydrazide]",< 100 nM
18,"CC(=O)N(C)N(Cc1ccc(-c2cc(C(F)(F)F)ccn2)cc1F)C(=O)c1ccc2nc(N)c3cnn(C)c3c2c1 [Example 225, N′-acetyl-4-amino-N-(2-fluoro-4-(4-(trifluoromethyl)pyridin-2-yl)benzyl)-N′,1-dimethyl-1H-pyrazolo[4,3-c]quinoline-8-carbohydrazide]",< 100 nM
19,"CN(C(=O)C1CC1)N(Cc1ccc(-c2ccc(C(F)(F)F)s2)cn1)C(=O)c1ccc2nc(N)c3cnn(C)c3c2c1 [Example 369, 4-amino-N′-(cyclopropanecarbonyl)-N′,1-dimethyl-N-((5-(5-(trifluoromethyl)thiophen-2-yl)pyridin-2-yl)methyl)-1H-pyrazolo[4,3-c]quinoline-8-carbohydrazide]",< 100 nM
20,"CC(=O)N(C)N(Cc1cc(F)c(F)c(F)c1)C(=O)c1ccc2nc(N)c3cnn(C)c3c2c1 [Example 414, N′-acetyl-4-amino-N′,1-dimethyl-N-(3,4,5-trifluorobenzyl)-1H-pyrazolo[4,3-c]quinoline-8-carbohydrazide]",100 to 1000 nM
21,"Nc1nc2ccc(C(=O)N(Cc3nc4ccc(Cl)cc4[nH]3)N3CCCC3=O)cc2c2ccccc12 [Example 124, 6-amino-N-((6-chloro-1H-benzo[d]imidazol-2-yl)methyl)-N-(2-oxopyrrolidin-1-yl)phenanthridine-2-carboxamide]",100 to 1000 nM
22,"CN(C(=O)C1CC1)N(Cc1ncc(C(F)(F)F)cc1Cl)C(=O)c1ccc2nc(N)c3cnn(C)c3c2c1 [Example 446, 4-amino-N-((3-chloro-5-(trifluoromethyl)pyridin-2-yl)methyl)-N′-(cyclopropanecarbonyl)-N′,1-dimethyl-1H-pyrazolo[4,3-c]quinoline-8-carbohydrazide]",< 100 nM
23,"Cn1ncc2c(N)nc3cc(F)c(C(=O)N(Cc4ccc(C(F)(F)F)cn4)N4CC5(CC5)COC4=O)cc3c21 [Example 320, 4-amino-7-fluoro-1-methyl-N-(6-oxo-5-oxa-7-azaspiro[2.5]octan-7-yl)-N-((5-(trifluoromethyl)pyridin-2-yl)methyl)-1H-pyrazolo[4,3-c]quinoline-8-carboxamide]",< 100 nM
24,"Cn1ncc2c(N)nc3cc(F)c(C(=O)N(Cc4ccc(C(F)(F)F)cn4)N4CCOC5(CC5)C4)cc3c21 [Example 284, 4-amino-7-fluoro-1-methyl-N-(4-oxa-7-azaspiro[2.5]octan-7-yl)-N-((5-(trifluoromethyl)pyridin-2-yl)methyl)-1H-pyrazolo[4,3-c]quinoline-8-carboxamide]",< 100 nM
25,"CC(=O)N(C)N(Cc1ccc(-c2cnn(C(F)F)c2)cc1C#N)C(=O)c1ccc2nc(N)c3cnn(C)c3c2c1 [Example 252, N′-acetyl-4-amino-N-(2-cyano-4-(1-(difluoromethyl)-1H-pyrazol-4-yl)benzyl)-N′,1-dimethyl-1H-pyrazolo[4,3-c]quinoline-8-carbohydrazide]",< 100 nM
26,"CN(C(=O)C1CC1)N(Cc1ccc(Br)cn1)C(=O)c1ccc2nc(N)c3cnn(C)c3c2c1 [Example 354, 4-amino-N-((5-bromopyridin-2-yl)methyl)-N′-(cyclopropanecarbonyl)-N′,1-dimethyl-1H-pyrazolo[4,3-c]quinoline-8-carbohydrazide]",< 100 nM
27,"CC(=O)N(C)N(Cc1ccc(C#N)cc1C(F)(F)F)C(=O)c1ccc2nc(N)c3cnn(C)c3c2c1 [Example 407, N′-acetyl-4-amino-N-(4-cyano-2-(trifluoromethyl)benzyl)-N′,1-dimethyl-1H-pyrazolo[4,3-c]quinoline-8-carbohydrazide]",100 to 1000 nM
28,"CC(=O)N(C)N(Cc1c(F)cc(-c2cnn(C(F)(F)F)c2)cc1F)C(=O)c1ccc2nc(N)c3cnn(C)c3c2c1 [Example 378, N′-acetyl-4-amino-N-[[2,6-difluoro-4-[1-(trifluoromethyl)pyrazol-4-yl]phenyl]methyl]-N′,1-dimethyl-pyrazolo[4,3-c]quinoline-8-carbohydrazide]",< 100 nM
29,"CC(=O)N(C)N(Cc1ccc(-c2cncs2)cc1F)C(=O)c1ccc2nc(N)c3cnn(C)c3c2c1 [Example 245, N′-acetyl-4-amino-N-(2-fluoro-4-(thiazol-5-yl)benzyl)-N′,1-dimethyl-1H-pyrazolo[4,3-c]quinoline-8-carbohydrazide]",< 100 nM
